# Measurements from ChEMBL document CHEMBL5053487 (J Med Chem, 2021).
# Tests used:
# Estrogen receptor = target: T1, Estrogen receptor (Homo sapiens, UniProt P03372)
# T1 sequence (P03372 whole entry): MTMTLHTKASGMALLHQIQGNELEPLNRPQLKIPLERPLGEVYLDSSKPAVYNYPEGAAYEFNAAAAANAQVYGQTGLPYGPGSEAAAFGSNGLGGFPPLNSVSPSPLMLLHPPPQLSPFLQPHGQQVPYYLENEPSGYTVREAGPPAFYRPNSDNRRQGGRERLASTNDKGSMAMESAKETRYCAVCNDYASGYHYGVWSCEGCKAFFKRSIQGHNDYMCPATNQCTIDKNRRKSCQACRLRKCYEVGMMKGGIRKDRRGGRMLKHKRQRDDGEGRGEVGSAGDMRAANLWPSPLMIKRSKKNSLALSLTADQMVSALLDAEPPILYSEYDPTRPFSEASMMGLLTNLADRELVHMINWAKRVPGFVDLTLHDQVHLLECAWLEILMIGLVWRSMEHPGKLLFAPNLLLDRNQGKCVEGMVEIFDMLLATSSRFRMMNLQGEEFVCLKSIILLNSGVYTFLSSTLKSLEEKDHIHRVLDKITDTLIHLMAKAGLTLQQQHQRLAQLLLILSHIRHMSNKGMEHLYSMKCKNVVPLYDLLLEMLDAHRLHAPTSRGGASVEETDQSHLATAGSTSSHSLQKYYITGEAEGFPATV
# Description: Antagonist activity at ERalpha (unknown origin) assessed as inhibition of fluorescein-labeled PGC-1 coactivator recruitment incubated for 30 mins measured by TR-FRET assay
# [1] = Antiproliferative activity on human MCF7/TAMR-1 cells at 10 uM assessed as ratio of T/C measured up to 144 hrs relative to control; type: functional, MCF-7/TAMR-1
# MCF7 = assay: Antiproliferative activity on human MCF7 cells at 5 to 20 uM assessed as ratio of T/C measured up to 144 hrs relative to control; type: functional; conditions: dose 5-20 µM
Structure (SMILES),T/C [1] [%],further results
CCC(=C(c1ccc(O)cc1)c1ccc(/C=C/C(=O)NCCCCCNC(=O)CCc2nc3cc(O)ccc3[nH]2)cc1)c1ccccc1 (mixture of isomers),,IC50 (Estrogen receptor): 0.125 µM
CCC(=C(c1ccc(O)cc1)c1ccc(/C=C/C(=O)NCCCCCCNC(=O)CCc2nc3cc(OC)ccc3[nH]2)cc1)c1ccccc1 (mixture of isomers),40,
CCC(=C(c1ccc(O)cc1)c1ccc(/C=C/C(=O)NCCCNC(=O)CCCn2c(=S)[nH]c3ccccc3c2=O)cc1)c1ccccc1 (mixture of isomers),40,
CCC(=C(c1ccc(O)cc1)c1ccc(/C=C/C(=O)NCCCCCCNC(=O)CCc2nc3cc(O)ccc3[nH]2)cc1)c1ccccc1 (mixture of isomers),40,
CCC(=C(c1ccc(O)cc1)c1ccc(/C=C/C(=O)NCCCNC(=O)c2ccc(N3CCN(C(=O)CCCn4c(=S)[nH]c5ccccc5c4=O)CC3)cc2)cc1)c1ccccc1 (mixture of isomers),40,
C[C@]12CC[C@@H]3c4ccc(O)cc4C[C@@H](CCCCCCCCC[S+]([O-])CCCC(F)(F)C(F)(F)F)[C@H]3[C@@H]1CC[C@@H]2O (stereo partly specified) [FULVESTRANT],,T/C (MCF7): 30%
